pIC50: −log10 of the molar value. Bounds are passed on as bounds.

The target of one assay is human factor XIa (Homo sapiens, UniProt P03951). Put plainly: Factor XIa Assay. It counts as biochemical. As to conditions: human factor XIa 0.04 nM, substrate GPR-AFC, 30 min pre-incubation, 25° C., pH 7.4; read-out: FXIa IC50. How it is done: (§1) The effectiveness of a compound of the present invention as an inhibitor of Coagulation factor XIa can be determined using a relevant purified serine protease, and an appropriate synthetic substrate. The rate of hydrolysis of the chromogenic or fluorogenic substrate by the relevant serine protease was measured both in the absence and presence of compounds of the present invention. Assays were conducted at rt or at 37° C. […] A decrease in the rate of fluorescence change in the presence of inhibitor is indicative of enzyme inhibition. Such methods are known to one skilled in the art. The results of this assay are expressed as the half-maximal inhibitory concentrations (IC50), or the inhibitory constant, Ki.
Compounds were pre-incubated for 30 min at 25° C. with human (0.04 nM) factor XIa in 50 mM HEPES buffer with 150 mM sodium chloride, 5 mM calcium chloride, 0.1% PEG 8000, pH 7.4. factor XIa enzymatic activity was determined by addition of the substrate glycine-proline-arginine-7-amido-4-trifluoromethylcoumarin (GPR-AFC) and measurement of the fluorescence at 400/505 nm after a 60 min incubation at 25° C. The % inhibition for each data point was calculated from the data and analyzed using the log (inhibitor) vs. response four parameters equation to determine the half-maximal inhibitory concentrations (IC50). The IC50 were converted to equilibrium inhibitory constants (Ki) using the Cheng-Prusoff equation.

The target of a further assay is T1, Human plasma kallikrein (Homo sapiens, UniProt P03952).
T1 construct: yields a heavy chain (371 amino acids) and a light chain (248 amino acids); The active site of plasma kallikrein is contained in the light chain; purchased Enzyme Research Laboratories
In words: Plasma Kallikrein Assay. As to conditions: purified Human plasma kallikrein 0.5 nM, substrate Acetyl-K-P-R-AFC, HEPES pH 7.4; read-out: PKal IC50. It counts as biochemical. Here is the method: as §1, with “plasma kallikrein” for “Coagulation factor XIa”
Plasma kallikrein determinations were made in 50 mM HEPES buffer at pH 7.4 containing 150 mM NaCl, 5 mM CaCl2), and 0.1% PEG 8000 (polyethylene glycol; Fisher Scientific). Determinations were made using purified Human plasma kallikrein at a final concentration of 0.5 nM (Enzyme Research Laboratories) and the synthetic substrate, Acetyl-K—P—R-AFC (Sigma #C6608) at a concentration of […].
Times required to achieve equilibration between enzyme and inhibitor were determined in control experiments. […] IC50 was determined by inflection point from a four parameter logistic curve fit. Ki was calculated using the Cheng Prusoff equation, Ki=IC50/[…](1+([S]/Km)).

human factor XIa, sequence (P03951 388-625 limits assumed): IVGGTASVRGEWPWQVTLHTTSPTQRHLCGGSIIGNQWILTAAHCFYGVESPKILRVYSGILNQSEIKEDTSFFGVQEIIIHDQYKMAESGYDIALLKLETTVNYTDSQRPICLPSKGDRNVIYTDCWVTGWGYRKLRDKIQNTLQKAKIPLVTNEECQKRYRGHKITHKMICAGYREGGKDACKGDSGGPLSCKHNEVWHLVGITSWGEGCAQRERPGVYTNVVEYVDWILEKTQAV
human factor XIa, sequence (P03951 19-387 partner limits assumed): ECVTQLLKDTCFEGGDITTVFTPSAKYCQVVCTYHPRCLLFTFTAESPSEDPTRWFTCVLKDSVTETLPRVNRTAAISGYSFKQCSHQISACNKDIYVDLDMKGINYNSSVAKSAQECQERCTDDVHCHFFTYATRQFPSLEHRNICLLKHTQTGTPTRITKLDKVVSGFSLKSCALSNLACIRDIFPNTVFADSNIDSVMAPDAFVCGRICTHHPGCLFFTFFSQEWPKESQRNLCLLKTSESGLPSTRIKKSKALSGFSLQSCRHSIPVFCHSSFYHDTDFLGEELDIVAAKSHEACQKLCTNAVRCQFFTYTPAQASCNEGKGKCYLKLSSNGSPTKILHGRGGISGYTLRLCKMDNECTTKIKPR
T1 sequence (P03952 391-638 limits assumed): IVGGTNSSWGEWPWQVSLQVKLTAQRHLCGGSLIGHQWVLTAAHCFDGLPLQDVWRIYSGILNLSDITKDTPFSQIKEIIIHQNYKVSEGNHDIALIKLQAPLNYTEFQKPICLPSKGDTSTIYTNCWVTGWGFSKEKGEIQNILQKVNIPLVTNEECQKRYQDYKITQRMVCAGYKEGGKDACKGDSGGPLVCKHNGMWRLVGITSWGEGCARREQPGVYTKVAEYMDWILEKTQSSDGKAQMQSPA
T1 sequence (P03952 20-390 partner limits assumed): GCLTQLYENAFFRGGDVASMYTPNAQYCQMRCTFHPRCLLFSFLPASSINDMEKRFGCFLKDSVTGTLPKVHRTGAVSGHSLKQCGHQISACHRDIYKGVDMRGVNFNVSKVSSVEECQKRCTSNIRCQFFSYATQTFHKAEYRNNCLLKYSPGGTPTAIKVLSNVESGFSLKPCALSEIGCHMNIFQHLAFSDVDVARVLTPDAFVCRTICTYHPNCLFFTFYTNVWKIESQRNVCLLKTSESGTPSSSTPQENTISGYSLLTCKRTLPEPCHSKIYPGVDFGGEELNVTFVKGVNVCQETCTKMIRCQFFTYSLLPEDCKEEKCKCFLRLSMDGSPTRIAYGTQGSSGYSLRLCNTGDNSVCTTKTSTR

Turning to `Cc1ncccc1-n1ncc(C(=O)N2CCC[C@@]3(C2)OC(=O)Nc2ccc(Cl)c(F)c23)c1N` [Example 61, (R)-1'-(5-Amino-1-(2-methylpyridin-3-y1)-1H-pyrazole-4-carbonyl)-6-chloro-5-fluorospiro[benzo[d][1,3]oxazine-4,3'-piperidin]-2(1H)-one], the pIC50 (as a rule, the IC50 on a negative log10 scale, so that one unit is a factor of ten) at human factor XIa was 5.76; at Human plasma kallikrein, 7.37.

`Nc1c(C(=O)N2CCC[C@@]3(C2)OC(=O)Nc2ccc(Cl)c(F)c23)cnn1CCc1ccccc1` [Example 16, (R)-1'-(5-Amino-1-phenethyl-1H-pyrazole-4-carbonyl)-6-chloro-5-fluorospiro[benzo[d][1,3]oxazine-4,3'-piperidin]-2(1H)-one]: the results for the pIC50 at human factor XIa and on Human plasma kallikrein were 6.36 and 8.39, respectively.

`CN(C)c1ccccc1Cn1ncc(C(=O)N2CCC[C@@]3(C2)OC(=O)Nc2ccc(Cl)c(F)c23)c1N` [Example 41, (R)-1'-(5-Amino-1-(2-(dimethylamino)benzyl)-1H-pyrazole-4-carbonyl)-6-chloro-5-fluorospiro[benzo[d][1,3]oxazine-4,3'-piperidin]-2(1H)-one]: the pIC50 on human factor XIa was 6.13; on Human plasma kallikrein, 7.94.

For the compound `Nc1c(C(=O)N2CCC[C@@]3(C2)OC(=O)Nc2ccc(Cl)c(F)c23)cnn1C1(C(F)(F)F)CCOCC1` [Example 53, (R)-1'-(5-Amino-1-(4-(trifluoromethyl)tetrahydro-2H-pyran-4-y1)-1H-pyrazole-4-carbonyl)-6-chloro-5-fluorospiro[benzo[d][1,3]oxazine-4,3'-piperidin]-2(1H)-one], the pIC50 is 5.95 on human factor XIa and 8.06 on Human plasma kallikrein.

As to `COc1cccnc1-n1ncc(C(=O)N2CCC[C@@]3(C2)OC(=O)Nc2ccc(Cl)c(F)c23)c1N` [Example 108, (R)-1'-(5-Amino-1-(3-methoxypyridin-2-y1)-1H-pyrazole-4-carbonyl)-6-chloro-5-fluorospiro[benzo[d][1,3]oxazine-4,3'-piperidin]-2(1H)-one], the pIC50 at human factor XIa is 5.77; at Human plasma kallikrein it was 7.40.

Regarding `CCC(c1ccccc1)n1ncc(C(=O)N2CCC[C@@]3(C2)OC(=O)Nc2ccc(Cl)c(F)c23)c1N` (single isomer, unassigned) [Example 116, (R)-1'-(5-Amino-1-((S or R)-1-phenylpropyl)-1H-pyrazole-4-carbonyl)-6-chloro-5-fluorospiro[benzo[d][1,3]oxazine-4,3'-piperidin]-2(1H)-one], the figures for the pIC50 at human factor XIa and on Human plasma kallikrein were 8.40 and 9.15, respectively.

For `CC(C)(C)n1ncc(C(=O)N2CCC[C@@]3(C2)OC(=O)Nc2ccc(Cl)c(F)c23)c1N` [Example 23, (R)-1'-(5-Amino-1-(tert-butyl)-1H-pyrazole-4-carbonyl)-6-chloro-5-fluorospiro[benzo[d][1,3]oxazine-4,3'-piperidin]-2(1H)-one], the pIC50 at human factor XIa was 5.65; on Human plasma kallikrein, 7.87.

For the compound `CC(C)Cn1ncc(C(=O)N2CCC[C@@]3(C2)OC(=O)Nc2ccc(Cl)c(F)c23)c1N` [Example 17, (R)-1'-(5-Amino-1-isobutyl-1H-pyrazole-4-carbonyl)-6-chloro-5-fluorospiro[benzo[d][1,3]oxazine-4,3'-piperidin]-2(1H)-one], the pIC50 at human factor XIa was 6.48; on Human plasma kallikrein, 8.10.

`Nc1c(C(=O)N2CCC[C@@]3(C2)OC(=O)Nc2ccc(Cl)c(F)c23)cnn1Cc1ccccc1Cl` [Example 44, (R)-1'-(5-Amino-1-(2-chlorobenzyl)-1H-pyrazole-4-carbonyl)-6-chloro-5-fluorospiro[benzo[d][1,3]oxazine-4,3'-piperidin]-2(1H)-one]: the pIC50 at human factor XIa is 6.60; on Human plasma kallikrein, 8.96.

Consider `COc1ccccc1-n1ncc(C(=O)N2CCC[C@@]3(C2)OC(=O)Nc2ccc(Cl)c(F)c23)c1N` [Example 79, (R)-1'-(5-Amino-1-(2-methoxyphenyl)-1H-pyrazole-4-carbonyl)-6-chloro-5-fluorospiro[benzo[d][1,3]oxazine-4,3'-piperidin]-2(1H)-one], for which the pIC50 was 6.42 on human factor XIa and 8.24 at Human plasma kallikrein.

For `O=C1Nc2ccc(Cl)c(F)c2[C@@]2(CCCN(C(=O)c3cnn(Cc4ccc(F)cc4)c3O)C2)O1` [Example 132, (R)-6-Chloro-5-fluoro-1′-(1-(4-fluorobenzyl)-5-hydroxy-1H-pyrazole-4-carbonyl)spiro[benzo[d][1,3]oxazine-4,3′-piperidin]-2(1H)-one], the pIC50 was ≤ 5.00 at human factor XIa and 7.75 at Human plasma kallikrein.

For the compound `COc1cc(F)ccc1-n1ncc(C(=O)N2CCC[C@@]3(C2)OC(=O)Nc2ccc(Cl)c(F)c23)c1N` [Example 100, (R)-1'-(5-Amino-1-(4-fluoro-2-methoxyphenyl)-1H-pyrazole-4-carbonyl)-6-chloro-5-fluorospiro[benzo[d][1,3]oxazine-4,3'-piperidin]-2(1H)-one], the figures for the pIC50 at human factor XIa and on Human plasma kallikrein were 6.43 and 8.05, respectively.

As for `CC1(n2ncc(C(=O)N3CCC[C@@]4(C3)OC(=O)Nc3ccc(Cl)c(F)c34)c2N)CCS(=O)(=O)C1` (single isomer, unassigned) [Example 118, (R)-1'-(5-Amino-1-((R or S)-3-methyl-1,1-dioxidotetrahydrothiophen-3-y1)-1H-pyrazole-4-carbonyl)-6-chloro-5-fluorospiro[benzo[d][1,3]oxazine-4,3'-piperidin]-2(1H)-one], the pIC50 was 6.00 at human factor XIa and 7.62 at Human plasma kallikrein.

For the compound `CC[C@H](n1ncc(C(=O)N2CCC[C@@]3(C2)OC(=O)Nc2ccc(Cl)c(F)c23)c1N)C(F)(F)F` (single isomer, unassigned) [Example 4], the pIC50 at human factor XIa is 8.05.

Turning to `Nc1c(C(=O)N2CCC[C@@]3(C2)OC(=O)Nc2ccc(Cl)c(F)c23)cnn1-c1ccccc1OC(F)(F)F` [Example 72, (R)-1'-(5-Amino-1-(2-(trifluoromethoxy)phenyl)-1H-pyrazole-4-carbonyl)-6-chloro-5-fluorospiro[benzo[d][1,3]oxazine-4,3'-piperidin]-2(1H)-one], the pIC50 at human factor XIa is 6.58.

On to `CC(=O)Nc1ccc(-n2ncc(C(=O)N3CCC[C@@]4(C3)OC(=O)Nc3ccc(Cl)c(F)c34)c2N)cc1` [Example 67, (R)-N-(4-(5-Amino-4-(6-chloro-5-fluoro-2-oxo-1,2-dihydrospiro[benzo[d][1,3]oxazine-4,3'-piperidine]-1'-carbonyl)-1H-pyrazol-1-yl)phenyl)acetamide], for which the pIC50 at human factor XIa is 5.14; on Human plasma kallikrein, 7.34.

For the compound `Nc1c(C(=O)N2CCC[C@@]3(C2)OC(=O)Nc2ccc(Cl)c(F)c23)cnn1CC1(F)CC1` [Example 29, (R)-1'-(5-Amino-1-((1-fluorocyclopropyl)methyl)-1H-pyrazole-4-carbonyl)-6-chloro-5-fluorospiro[benzo[d][1,3]oxazine-4,3'-piperidin]-2(1H)-one], the pIC50 is 6.15 on human factor XIa and 8.10 at Human plasma kallikrein.

Take `CCC(C1CCOCC1)n1ncc(C(=O)N2CCC[C@@]3(C2)OC(=O)Nc2ccc(Cl)c(F)c23)c1N` (single isomer, unassigned) [Example 113, (R)-1'-(5-Amino-1-((S or R)-1-(tetrahydro-2H-pyran-4-yl)propyl)-1H-pyrazole-4-carbonyl)-6-chloro-5-fluorospiro[benzo[d][1,3]oxazine-4,3'-piperidin]-2(1H)-one]: the pIC50 is 8.70 at human factor XIa and 9.22 at Human plasma kallikrein.

For `Nc1c(C(=O)N2CCC[C@@]3(C2)OC(=O)Nc2ccc(Cl)c(F)c23)cnn1Cc1ccccc1` [Example 8, (R)-1'-(5-Amino-1-benzyl-1H-pyrazole-4-carbonyl)-6-chloro-5-fluorospiro[benzo[d][1,3]oxazine-4,3'-piperidin]-2(1H)-one], the pIC50 at human factor XIa is 7.17.

As to `Nc1c(C(=O)N2CCC[C@@]3(C2)OC(=O)Nc2ccc(Cl)c(F)c23)cnn1-c1ccccc1` [Example 57, (R)-1'-(5-Amino-1-phenyl-1H-pyrazole-4-carbonyl)-6-chloro-5-fluorospiro[benzo[d][1,3]oxazine-4,3'-piperidin]-2(1H)-one], the pIC50 on human factor XIa is 5.38.

On to `CC[C@@H](n1ncc(C(=O)N2CCC[C@@]3(C2)OC(=O)Nc2ccc(Cl)c(F)c23)c1N)C(F)(F)F` (single isomer, unassigned) [Example 3], for which, on human factor XIa, the pIC50 is 6.98.

Values taken from US12679848B2, “Plasma kallikrein inhibitors” (Merck Sharp & Dohme LLC, priority 2020, dated 2026).
